Experiment [1] deals with E. coli CSH36/S90C and CSH22/S90C co-culture. The experiment can be described thus: Co-culture selection, colony growth on X-gal plates. It is filed as cell-based. To be noted: 30 μg/ml chloramphenicol or 42 μg/ml M0165, plated on X-gal. How it is done:
E. coli strains CSH36/S90C and CSH22/S90C were grown in co-culture and tested with the chloramphenicol galactoside pro-drug (M0165) described in Example 15, to show lack of translocation of drug released in β-galactosidase expressing cells to other cells in the culture, and therefore selection for the lacZ-cells. CSH36 is a constitutive mutant for lacZ and therefore produces β-galactosidase regardless of induction conditions. CSH22 is a deletion mutant for lacZ and is therefore uninducible. Each strain individually and both strains together were innoculated into 10 mL aliquots of M9 minimal media and grown shaking at 37° C. overnight. Overnight cultures (500 μL) were transferred into 10 mL fresh M9 media and grown to logarithmic phase for 4 hours prior to beginning the experiments. 1 mL of this culture was transferred to 10 ml fresh M9 media containing 30 μg/ml chloramphenicol, 42 μg/ml M0165, or no additions, and returned to the incubator. Growth curves were generated by removing aliquots of each culture at 30 minute intervals and reading absorbance at 420 nm. Remaining portions of the cultures were allowed to grow overnight, and final absorbance readings were taken. […] Plates were incubated at 37° C. for 48 hours, then evaluated for growth of white (indicating lacZ −, CSH22 cells) and blue (indicating lacZ +, CSH 36 cells) colonies.

In experiment [2] the test system is GUS-positive potato (May queen) plants. Nature of the experiment: Negative selection of potato transformants. To be noted: M0627 3.5 mg/L, M0630 10 mg/L, M0632 10 mg·L, M0792 5 mg/L; MS media, soil or daily spray. It is filed as in vivo. As to the method: Potato (May queen) pieces with sprouts are planted in a mixture of vermiculite and compost (1:1). After two weeks, the apical meristem culture of the grown sprouts is removed to obtain the sterile seedling plants. Sterile plants are then placed in MS liquid medium containing 2% sucrose, pH 5.7 (80 ml) and incubated with rotation at 25° C. in a well-lighted place to induce rooting. After two weeks, the rooted plants are transferred into MS liquid medium for microtuber induction (MS medium, 8% sucrose, pH 5.7, 40 ml medium in 100 ml Erlenmeyer flask) in the dark for 28 days. The microtubers are then cut into pieces (2 mm) and transferred into agar medium for regeneration (MS medium, 2% sucrose, 1 mg/l zeatin, 0.1 mg/l IAA, 1% agar). The pieces of the microtuber pre-cultured for two days are then immersed in an Agrobacterium tumefaciens strain LBA4404 suspension containing the binary plasmid pBI121 (Clontech, Palo Alto, Calif.) for transformation. The plasmid pBI121 carries the neomycin phosphotransferase (NPTII) gene and β-glucuronidase (GUS) gene. In this vector, the neomycin phosphotransferase (NPTII) gene is under the control of the nopaline synthase (nos) promoter and the terminator from nopaline synthase (nos) which provides polyadenylation signal. The neomycin phosphotransferase (NPTII) gene confers kanamycin resistance. The β-glucuronidase (GUS) activity is under the control of the cauliflower mosaic virus ^35S promoter, providing constitutive expression in all tissues, and the terminator from nopaline synthase (nos) provides polyadenylation. Agrobacterium tumefaciens was grown overnight at 28° C. in liquid YEP medium (Sambrook J., Fritsch E. F., Maniatis T., Molecular Cloning: a laboratory manual. 2nd ed., Cold Spring Harbor, N.Y., 1989) supplemented with 25 mg/l rifampicin, 50 mg/l streptomycin, and 50 mg/l kanamycin. An overnight culture is diluted with liquid TE medium to 4×10^8 cells/ml for transformation. A filter paper is placed on the agar medium, over the microtuber pieces and the co-culture is continued for 48 hours. The transfected microtubers are then washed 4-5 times in sterile distilled water to decrease the concentration of Agrobacterium tumefaciens and with a cefotaxime (250 mg/l) solution for 20 min, and then again with sterile distilled water (4-5 times). The microtubers are then transferred into an agar screening medium (MS medium, 2% sucrose, 1 mg/l zeatin, 1 mg/l IAA, 1% agar, 50 mg/l kanamycin, 500 mg/l Claforan, 1% agar). After about two months growth, the divided shoots are transferred into a rooting induction medium and then into a microtuber induction medium. The obtained GUS-positive plants are used for the analysis.

Another experiment deals with wild-type tomato plants. The experiment can be described thus: Negative selection of tomato, wild type. It is filed as in vivo. Conditions: M0627 3.5 mg/L, M0630 10 mg/L, M0632 10 mg·L, M0792 5 mg/L; MS media, soil or daily spray.
In the next experiment the test system is wild-type potato plants. Nature of the experiment: Negative selection of potato, wild type. It is filed as in vivo. To be noted: M0627 3.5 mg/L, M0630 10 mg/L, M0632 10 mg·L, M0792 5 mg/L; MS media, soil or daily spray.
The test system of experiment [3] is GUS-positive tomato (minitomato) plants. The experiment can be described thus: Negative selection of tomato transformants. It is filed as in vivo. Conditions: M0627 3.5 mg/L, M0630 10 mg/L, M0632 10 mg·L, M0792 5 mg/L; MS media, soil or daily spray. As to the method: Tomato (cultivar, minitomato) seeds are surface-sterilized with 70% ethanol (30 seconds) and 2% sodium hypochlorite (15 minutes), and then placed on a plant hormone-free MS agar medium. The seeds are cultured at […] 23° C. in long-day (16 hours light/8 hours dark) cycles, under a mixture of Cool White and Gro-Lux/WS fluorescent lights (Osram, Sylvania) and sterile conditions. The cotyledons are taken from the obtained sterile seedlings and then placed on an MS agar medium containing 2 mg/l of Zeatin and 0.1 mg/l of IAA (regeneration medium) in 9 cm Petri dishes, and cultured under the same conditions as those described above for 2 days.
Agrobacterium tumefaciens strain LBA4404 suspension containing the binary plasmid pBI121 (Clontech, Palo Alto, Calif.) is used for transformation. The plasmid pBI121 carries the neomycin phosphotransferase (NPTII) gene and β-glucuronidase (GUS) gene. In this vector, the neomycin phosphotransferase (NPTII) gene is under the control of the nopaline synthase (nos) promoter and the terminator from nopaline synthase (nos) which provides polyadenylation signal. The neomycin phosphotransferase (NPTII) gene confers kanamycin resistance. The β-glucuronidase (GUS) activity is under the control of the cauliflower mosaic virus ^35S promoter, providing constitutive expression in all tissues, and the terminator from nopaline synthase (nos) provides polyadenylation. Agrobacterium tumefaciens is grown overnight at 28° C. in liquid YEP medium (Sambrook J., Fritsch E. F., Maniatis T., Molecular Cloning: a laboratory manual. 2nd ed., Cold Spring Harbor, N.Y., 1989) supplemented with 25 mg/l rifampicin, 50 mg/l streptomycin, and 50 mg/l kanamycin. An overnight culture is diluted with liquid TE medium to 4×10^8 cells/ml for transformation.
The cotyledons cultured for two days are collected in a sterilized Petri dish, and the Agrobacterium suspension is added to them to cause infection. Superfluous Agrobacterium suspension is removed from the cotyledons by using a sterilized filter paper. After further removing excess Agrobacterium suspension, a sterilized filter paper is placed on the medium in the Petri dish in order to prevent rapid propagation of Agrobacterium. The infected cotyledons are placed on this media and co-cultured for 24 hours.
The transfected cotyledons are then transferred into an agar screening medium (MS medium, 2% sucrose, 1 mg/l zeatin, 1 mg/l IAA, 1% agar, 50 mg/l kanamycin, 500 mg/l claforan, 1% agar) to select the GUS transformant plants. The regenerated shoots are then transferred into a new selecting medium to conduct further selection.

Experiment [4] deals with Arabidopsis thaliana Landsberg erecta wild type (WT). Nature of the experiment: Plant growth on MS media containing conjugates, wild type. It is filed as in vivo. The text has this: (§1) Arabidopsis thaliana Landsberg erecta is a wild type (WT) strain derived from the Landsberg ecotype. Arabidopsis thaliana Landsberg erecta strain DW150-307 (DW) is a transgenic strain produced using the method of Blazquez et al., 1997, Development 124:3835-3844. The transgenic DW strain is homozygous for the LFY::GUS insertion and thus contains GUS under control of the full length LFY promoter that expresses E. coli β-glucuronidase. Expression of GUS in this strain is developmentally regulated, showing the highest levels 9 days after germination (at the onset of meristem floral initiation under a long-day, 16 h. light regime), but having basal levels in vegetative apices throughout secondary growth. Accordingly, GUS expression leads to production of the E. coli β-glucuronidase enzyme in floral and to a lesser extent in shoot meristem tissues of the plant. Isogenic homozygous plant strains were kindly provided by Dr. Detlef Weigel, Department of Biology, The Salk Institute, San Diego, Calif.
(§2) Wild type (WT) and recombinant (DW) plants were grown in MS media containing 0-100 ug/mL of conjugates M0630, M0632, or M0792 (prepared as set forth herein). All plants were grown at 23° C. in long-day (16 hours light/8 hours dark) cycles, under a mixture of Cool White and Gro-Lux/WS fluorescent lights (Osram, Sylvania) and sterile conditions.

Experiment [5] relates to Arabidopsis thaliana Landsberg erecta strain DW150-307 (DW). Nature of the experiment: Plant growth on MS media containing conjugates, LFY::GUS recombinant. It is filed as in vivo. To be noted: for floral tissue response of DW plants upon inflorescence / vegetative growth of DW plants: MS media containing conjugate.
Text: as §1, §2

Setting [6] is: 100 ug/mL in MS media (highest concentration).
The mark [7] stands for this setting: lower concentrations in MS media.

As to `O=C(NC(COC1OC(CO)C(O)C(O)C1O)C(O)c1ccc([N+](=O)[O-])cc1)C(Cl)Cl` [Example M0165, D(−)-threo-2,2-dichloro-N-[β-hydroxy-α-(O-β-D-galactopyranosylmethyl)-β-(4-nitrophenyl)ethyl]acetamide], the “colony growth after overnight co-culture” value in experiment [1] is “growth of only CSH22 cells”.

Consider `COC(=O)C1OC(Oc2ccc(=O)[nH]n2)C(OC(C)=O)C(OC(C)=O)C1OC(C)=O` [Example M0627, Maleic Hydrazide Beta-D-Glucuronide Triacetate, Methyl Ester], for which the “effect on GUS-positive plants” value in experiment [2] and in experiment [3] was “selective ablation” throughout. Moreover, the “effect on wild-type plants” value in the experiment with wild-type tomato plants and in the experiment with wild-type potato plants was “does not affect growth or morphology” each time. Further, the “growth of wild type plants” value was “slightly slower” in experiment [4] (setting [6]) and “comparable growth to the blank controls” in experiment [4] (setting [7]).

For `COC(=O)C1OC(Oc2c(Br)cc(C#N)cc2Br)C(OC(C)=O)C(OC(C)=O)C1OC(C)=O` [Example M0630, bromoxynil-β-D-glucuronic acid methyl ester triacetate], the “effect on GUS-positive plants” value in experiment [2] and in experiment [3] was “selective ablation” in each case. The “effect on wild-type plants” value in the experiment on wild-type tomato plants and with wild-type potato plants was “does not affect growth or morphology” in each case. In addition, in experiment [5], the “floral tissue response of DW plants upon inflorescence” value is “floral tissues became chlorotic (brown) and became dehydrated and ablated”. The “vegetative growth of DW plants” value in experiment [5] is on record as “normal vegetative growth until inflorescence initiation”.

For the molecule `COC(=O)C1OC(Oc2c(Br)cc(C#N)cc2Br)C(O)C(O)C1O` [Example M0632, Bromoxynil-β-D-glucuronic acid methyl ester], the “effect on GUS-positive plants” value in experiment [2] and in experiment [3] was “selective ablation” each time. Further, the “effect on wild-type plants” value with wild-type tomato plants and in the experiment on wild-type potato plants was “does not affect growth or morphology” in each case. In addition, the “growth of wild type plants” value in experiment [4] (setting [6]) is on record as “slightly slower”; in experiment [4] (setting [7]), “comparable growth to the blank controls”. Besides, the “growth phenotype of DW150-307 plants” value in experiment [5] (1 ug/mL for 32 days) is given as “callus formation”. Also, the “germination and survival of DW plants” value in experiment [5] (media application, above the lowest concentration) is “either did not germinate or were ablated shortly after germination”.

`COC(=O)C1OC(OC(CC2CC(=O)NC(=O)C2)C2CC(C)CC(C)C2=O)C(OC(C)=O)C(OC(C)=O)C1OC(C)=O` [Example M0792, Cycloheximide-β-D-glucuronic acid methyl ester triacetate]: the “effect on GUS-positive plants” value in experiment [2] and in experiment [3] was “selective ablation” in each case. Also, the “effect on wild-type plants” value in the experiment with wild-type tomato plants and with wild-type potato plants was “does not affect growth or morphology” each time. The “growth of wild type plants” value in experiment [4] (setting [6]) is recorded as “slightly slower”; in experiment [4] (setting [7]) it was “comparable growth to the blank controls”. Moreover, the “floral tissue response of DW plants upon inflorescence” value in experiment [5] is “floral tissues became chlorotic (brown) and became dehydrated and ablated”. Besides, the “vegetative growth of DW plants” value in experiment [5] is “normal vegetative growth until inflorescence initiation”.

On to `O=C(N[C@H](CO)[C@H](O)c1ccc([N+](=O)[O-])cc1)C(Cl)Cl` [chloramphenicol, reference compound], for which, in experiment [1], the “colony growth after overnight co-culture” value is listed as “no growth of either cell type”.

The values are drawn from patent US8716558B2, “Method of altering glycosylation of proteins in response to nojirimycin glucuronide in a plant cell expressing glucuronidase” (Marker Gene Technologies, Inc., priority 1999, dated 2014).
